Consider 1 compound from paper PMC11001641, “Iron–sulfur cluster assembly scaffold protein IscU is required for activation of ferric uptake regulator (Fur) in Escherichiacoli” (The Journal of Biological Chemistry, 2024).

One test concerns the target T1, E. coli FhuF (Escherichia coli, UniProt P39405).
T1 construct: his-tagged, expressed from pBAD in E. coli MC4100
Nature of the test: UV-Vis absorption of purified protein. It is filed as binding. Conditions: pH 8.0; 500 mM NaCl; protein from wild-type E. coli grown in M9 with 2 uM iron; bound during expression.

Another test has as its target T2, E. coli ferredoxin (Fdx) (Escherichia coli, UniProt P0A9R4).
T2 construct: his-tagged, expressed from pBAD in E. coli MC4100; isc operon ferredoxin
T2 sequence (P0A9R4 2-111): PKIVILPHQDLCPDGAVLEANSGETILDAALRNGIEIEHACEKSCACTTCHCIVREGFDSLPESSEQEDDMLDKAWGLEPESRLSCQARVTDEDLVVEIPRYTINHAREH
Description: UV-Vis absorption of purified protein. The class given is binding. Conditions: pH 8.0; 500 mM NaCl; protein from wild-type E. coli grown in M9 with 2 uM iron; bound during expression.

T1 sequence (P39405 whole entry): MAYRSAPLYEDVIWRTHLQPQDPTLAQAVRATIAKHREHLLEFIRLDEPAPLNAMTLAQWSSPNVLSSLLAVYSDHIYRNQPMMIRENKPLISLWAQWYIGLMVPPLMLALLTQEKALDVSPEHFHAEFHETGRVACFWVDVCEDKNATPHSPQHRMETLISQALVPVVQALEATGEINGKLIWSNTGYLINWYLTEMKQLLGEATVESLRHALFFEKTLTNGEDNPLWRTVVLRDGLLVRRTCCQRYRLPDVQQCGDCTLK

Turning to `[S]1[Fe][S][Fe]1` [[2Fe-2S] cluster], the “UV-Vis absorption of purified protein” value was “[2Fe-2S] cluster assembly in the E. coli siderophore-reductase FhuF” on E. coli FhuF and “the E. coli ferredoxin, a [2Fe-2S] cluster-containing protein” at E. coli ferredoxin (Fdx).
